Reference: patent US4346087A, “Antibacterial surface active agent containing azaalkenelactam” (priority 1979, dated 1982)
Values after ≈ are worked out from the molar mass of the structure shown. Where two headings read alike, the source gives them in different places.

What was measured:
Streptococcus faecalis = assay: MIC against Streptococcus faecalis; assay type: cell-based
From the text: (§1) Below are described the antibacterial activities of the compounds in the compositions according to this invention. The results of antibacterial activity tests on the N-alkyl-substituted azaalkenelactams and their derivatives having a carboxylate radical of Examples 1 to 70 were as shown in Tables 1 to 3.
(§2) The testing method complied with the standard method of Japan Sociaty of Chemotherapy.

[1] = tested on: Bacillus subtilis ATCC 6633; assay: MIC against Bacillus subtilis ATCC 6633; assay type: cell-based
From the text: as §1, §2

Pasteurella multocida = assay: MIC against Pasteurella multocida; assay type: cell-based
From the text: as §1, §2

[2] = tested on: Staphylococcus aureus FDA 209P; assay: MIC against Staphylococcus aureus FDA 209P; assay type: cell-based
From the text: (§3) Below are described the antibacterial activities of the compounds in the compositions according to this invention.
as §2

[3] = tested on: Pseudomonas aruginosa IFO 3443; assay: MIC against Pseudomonas aeruginosa; assay type: cell-based
From the text: as §1, §2

[4] = tested on: Desulfovibrio desulfuricans IFO 13699; assay: MIC against Desulfovibrio desulfuricans; assay type: cell-based
From the text: as §3, §2

Escherichia coli NIHJ = assay: MIC against Escherichia coli NIHJ; assay type: cell-based
From the text: as §3, §2

Salmonella typhinurium = assay: microbe, parasite or virus in culture; assay type: cell-based, Salmonella typhimurium
From the text: as §1, §2

[5] = tested on: Staphylococcus epidermidis; assay: MIC against Staphylococcus epidermidis; assay type: cell-based
From the text: as §1, §2

[6] = Enterococcus faecalis, Table 3, heart infusion agar, 37° C., 24 hours, read-out: MIC
[7] = Bacillus subtilis, ATCC6633, 24 h
[8] = Pasteurella multocida, Table 3, heart infusion agar, 37° C., 24 hours, read-out: MIC
[9] = Staphylococcus aureus, FDA209P, Table 1, azaalkenelactams, heart infusion agar, 37° C., 24 hours, read-out: MIC
[10] = Desulfovibrio desulfuricans, IFO13699, Table 1, azaalkenelactams, heart infusion agar, 37° C., 24 hours, read-out: MIC
[11] = Escherichia coli, Table 1, azaalkenelactams, heart infusion agar, 37° C., 24 hours, read-out: MIC
[12] = Table 3, heart infusion agar, 37° C., 24 hours, read-out: MIC
[13] = Staphylococcus epidermidis, Table 3, heart infusion agar, 37° C., 24 hours, read-out: MIC
[14] = Staphylococcus aureus, FDA209P, 24 h
[15] = Desulfovibrio desulfuricans, IFO13699, 24 h
[16] = Staphylococcus epidermidis, 24 h
[17] = Table 3, heart infusion agar, 37° C., 24 hours
[18] = Table 1, azaalkenelactams, heart infusion agar, 37° C., 24 hours

Compound	MIC [1, 7] [µg/mL]	MIC (Pasteurella multocida; [8]) [µg/mL]	MIC [2, 9] [µg/mL]	MIC (Salmonella typhinurium; [12]) [µg/mL]	MIC (Streptococcus faecalis; Enterococcus faecalis, 24 h) [µg/mL]	MIC ([3]; Pseudomonas, IFO3443, 24 h) [µg/mL]	MIC (Escherichia coli NIHJ; Escherichia coli, 24 h) [µg/mL]	MIC [2, 14] [µg/mL]	MIC [4, 15] [µg/mL]	other results
CCCCCCCCCCCCCCC(O)CNCCN1CCN=C(C)CC1=O (stereo not shown) [Example 29, 4-(2-hydroxyhexadecyl)aminoethyl-7-methyl-3,6-dihydro-2H-1,4-diazepin-5-one]	3.12 (≈ 7.62 µM)	< 1.56	6.25 (≈ 15.3 µM)	3.12 (≈ 7.62 µM)						MIC (Streptococcus faecalis; [6]): 6.25 µg/mL (≈ 15.3 µM); MIC ([3]; Pseudomonas, IFO3443, Table 3, heart infusion agar, 37° C., 24 hours, read-out: MIC): 100 µg/mL (≈ 244 µM); MIC [4, 10]: 3.12 µg/mL (≈ 7.62 µM); MIC (Escherichia coli NIHJ; [11]): 25 µg/mL (≈ 61 µM); MIC [5, 13]: 1.56 µg/mL (≈ 3.81 µM)
CCCCCCCCCCCCCCNCCN1CCN=CCCC1=O [Example 53, 4-tetradecylaminoethyl-2,3,6,7-tetrahydro-1,4-diazocin-5-one]	3.12 (≈ 8.53 µM)	< 1.56	1.56 (≈ 4.27 µM)	3.12 (≈ 8.53 µM)	6.25 (≈ 17.1 µM)	100 (≈ 274 µM)	6.25 (≈ 17.1 µM)			MIC [4, 10]: 3.12 µg/mL (≈ 8.53 µM); MIC [5, 13]: 1.56 µg/mL (≈ 4.27 µM)
CCCCCCCCCCCCNCCNCCN1CCN=C(C)CC1=O [Example 34, 4-dodecylaminoethylaminoethyl-7-methyl-3,6-dihydro-2H-1,4-diazepin-5-one]	3.12 (≈ 8.2 µM)	< 1.56	3.12 (≈ 8.2 µM)	3.12 (≈ 8.2 µM)	6.25 (≈ 16.4 µM)	100 (≈ 263 µM)	25 (≈ 65.7 µM)			MIC [4, 10]: 3.12 µg/mL (≈ 8.2 µM); MIC [5, 13]: < 1.56 µg/mL
CCCCCCCCCCCC(=O)NCCN1CC[N+](CC(=O)[O-])=C(C)CC1=O [4-lauramidoethyl-7-methyl-1-azonia-4-azacyclohept-7-en-5-one-1-acetate]	50 (≈ 122 µM)	< 1.56			12.5 (≈ 30.5 µM)	200 (≈ 488 µM)	100 (≈ 244 µM)	50 (≈ 122 µM)	12.5 (≈ 30.5 µM)	MIC (Salmonella typhinurium; 24 h): 6.25 µg/mL (≈ 15.3 µM); MIC [5, 16]: 12.5 µg/mL (≈ 30.5 µM)
CCCCCCCCCCCCCCNCCN1CCN=CCC(C)C1=O (stereo not shown) [Example 65, 4-tetradecylaminoethyl-6-methyl-2,3,6,7-tetrahydro-1,4-diazocin-5-one]	3.12 (≈ 8.22 µM)	< 1.56	3.12 (≈ 8.22 µM)	3.12 (≈ 8.22 µM)	6.25 (≈ 16.5 µM)	100 (≈ 263 µM)	12.5 (≈ 32.9 µM)		6.25 (≈ 16.5 µM)	MIC [5, 13]: 1.56 µg/mL (≈ 4.11 µM)
CCCCCCCCCCCC(=O)NCCN1CCN=C(C)CC1=O [Example 9, 4-lauramidoethyl-7-methyl-3,6-dihydro-2H-1,4-diazepin-5-one]	25 (≈ 71.1 µM)	3.12 (≈ 8.88 µM)			12.5 (≈ 35.6 µM)	100 (≈ 284 µM)	25 (≈ 71.1 µM)	12.5 (≈ 35.6 µM)	6.25 (≈ 17.8 µM)	MIC (Salmonella typhinurium; 24 h): 6.25 µg/mL (≈ 17.8 µM); MIC [5, 16]: 6.25 µg/mL (≈ 17.8 µM)
CCCCCCCCCCCCCCC(O)CNCCN1CCN=CCC(C)C1=O (stereo not shown) [Example 66, 4-(2-hydroxyhexadecyl)aminoethyl-6-methyl-2,3,6,7-tetrahydro-1,4-diazocin-5-one]	6.25 (≈ 14.8 µM)	< 1.56		3.12 (≈ 7.36 µM)	6.25 (≈ 14.8 µM)	200 (≈ 472 µM)	25 (≈ 59 µM)	12.5 (≈ 29.5 µM)	12.5 (≈ 29.5 µM)	MIC [5, 13]: 1.56 µg/mL (≈ 3.68 µM)
CCCCCCCCCCCCCCNCCN1CCN=CC(C)(C)C1=O [Example 58, 4-tetradecylaminoethyl-6,6-dimethyl-3-hydro-2H-1,4-diazepin-5-one]			3.12 (≈ 8.22 µM)	1.56 (≈ 4.11 µM)		50 (≈ 132 µM)	6.25 (≈ 16.5 µM)			MIC (Streptococcus faecalis; [6]): 3.12 µg/mL (≈ 8.22 µM); MIC ([1]; Bacillus subtilis, ATCC6633, Table 3, heart infusion agar, 37° C., 24 hours, read-out: MIC): 3.12 µg/mL (≈ 8.22 µM); MIC (Pasteurella multocida; Pasteurella multocida, 24 h): < 1.56 µg/mL; MIC [4, 10]: 3.12 µg/mL (≈ 8.22 µM); MIC [5, 16]: < 1.56 µg/mL
CCCCCCCCCCCCCCC(O)CNCCN1CCCN=CC(C)C1=O (stereo not shown) [Example 49, 1-(2-hydroxyhexadecyl)aminoethyl-3-methyl-3,6,7,8-tetrahydro-1,5-diazocin-2-one]										MIC (Streptococcus faecalis; [17]): 6.25 µg/mL (≈ 14.8 µM); MIC [1, 17]: 3.12 µg/mL (≈ 7.36 µM); MIC (Pasteurella multocida; [17]): < 1.56 µg/mL; MIC [2, 18]: 3.12 µg/mL (≈ 7.36 µM); MIC [3, 17]: 200 µg/mL (≈ 472 µM); MIC [4, 18]: 3.12 µg/mL (≈ 7.36 µM); MIC (Escherichia coli NIHJ): 25 µg/mL (≈ 59 µM); MIC [5, 17]: 1.56 µg/mL (≈ 3.68 µM)
4-(2-hydroxyhexadecyl)aminoethyl-6-methyl-3,6-dihydro-2H-1,4-diazepin-5-one [Example 41]										MIC (Streptococcus faecalis; [17]): 6.25 µg/mL; MIC [1, 17]: 3.12 µg/mL; MIC (Pasteurella multocida; [17]): < 1.56 µg/mL; MIC [2, 18]: 3.12 µg/mL; MIC [3, 17]: 100 µg/mL; MIC [4, 18]: 3.12 µg/mL; MIC (Escherichia coli NIHJ): 25 µg/mL; MIC [5, 17]: 1.56 µg/mL
CCCCCCCCCCCCN1CCN=CC(C)C1=O (stereo not shown) [Example 42, 4-dodecyl-6-methyl-3,6-dihydro-2H-1,4-diazepin-5-one]							400 (≈ 1360 µM)	12.5 (≈ 42.4 µM)	6.25 (≈ 21.2 µM)	
1-coconutalkyl-4-methyl-3,6,7,8-tetrahydro-1,5-diazocin-2-one [Example 15]										MIC [2]: 50 µg/mL; MIC [4]: 6.25 µg/mL; MIC (Escherichia coli NIHJ; [18]): 1600 µg/mL
CCCCCCCCCCCCC(O)CNCCN1CC[N+](CC(=O)[O-])=C(C)CC1=O (stereo not shown) [4-(2-hydroxytetradecyl)aminoethyl-7-methyl-1-azonia-4-azacyclohept-7-en-5-one-1-acetate]							100 (≈ 227 µM)	50 (≈ 114 µM)	12.5 (≈ 28.4 µM)	
CCCCCCCCCCCC(=O)OCCN1CC[N+](CC(=O)[O-])=CC(C)C1=O (stereo not shown) [4-lauroyloxyethyl-6-methyl-1-azonia-4-azacyclohept-7-en-5-one-1-acetate]							200 (≈ 487 µM)	50 (≈ 122 µM)	50 (≈ 122 µM)	
CCCCCCCCCCCCCCNCCN1CCC[N+](C(C)C(=O)[O-])=CC(C)C1=O (stereo not shown) [1-tetradecylaminoethyl-3-methyl-1-aza-5-azoniacyclooct-4-en-2-one-5-propionate]							100 (≈ 221 µM)	6.25 (≈ 13.8 µM)	6.25 (≈ 13.8 µM)	
CCCCCCCCCCCCN1CCN=C(C)CC1=O [Example 1, 4-dodecyl-7-methyl-3,6-dihydro-2H-1,4-diazepin-5-one]			50 (≈ 170 µM)						6.25 (≈ 21.2 µM)	MIC (Escherichia coli NIHJ; [11]): 1600 µg/mL (≈ 5430 µM)
CCCCCCCCCc1ccc(OCC(O)CNCCNCCNCCN2CCN=C(C)CC2=O)cc1 (stereo not shown) [Example 32, 4-nonylphenoxy(2-hydroxy)propylaminoethylaminoethylaminoethyl-7-methyl-3,6-dihydro-2H-1,4-diazepin-5-one]								200 (≈ 376 µM)	25 (≈ 47 µM)	MIC (Escherichia coli NIHJ; [11]): 800 µg/mL (≈ 1500 µM)
4-octoxy(2-hydroxy)propyl-7-methyl-3,6-dihydro-2H-1,4-diazepin-5-one [Example 31]										MIC [2]: 50 µg/mL; MIC [4]: 50 µg/mL; MIC (Escherichia coli NIHJ): 400 µg/mL
CCCCCCCCCCCCNCCNCCN1CC[N+](CC(=O)[O-])=C(C)CC1=O [4-dodecylaminoethylaminoethyl-1-azonia-4-azacyclohept-7-en-5-one-1-acetate]							100 (≈ 228 µM)	12.5 (≈ 28.5 µM)	6.25 (≈ 14.2 µM)	
CCCCCCCCCCCCCCCCN1CC[N+](CC(=O)[O-])=C(C)CC1=O [4-hexadecyl-7-methyl-1-azonia-4-azacyclohept-7-en-5-one-1-acetate]								100 (≈ 245 µM)	12.5 (≈ 30.6 µM)	MIC (Escherichia coli NIHJ; Escherichia coli, Table 2, derivatives having a carboxylate radical, heart infusion agar, 37° C., 24 hours, read-out: MIC): 3200 µg/mL (≈ 7830 µM)
